Assay [1] relates to Mus musculus. The experiment in a line: In vivo activity tested against C3H mice bearing panc-03 murine tumor measured as % treated/control calculated at 561 mg/kg (po). The format is functional.
Assay [2] has as its system Mus musculus. The experiment in a line: In vivo activity tested against C3H mice bearing panc-03 murine tumor measured as body weight loss at 1010 mg/kg (po). The class given is functional.
The subject of assay [3] is Mus musculus. In words: In vivo activity tested against C3H mice bearing panc-03 murine tumor measured as % treated/control calculated at 1010 mg/kg (po). The class given is functional.
Assay [4] relates to Mus musculus. The experiment in a line: In vivo activity tested against C3H mice bearing panc-03 murine tumor measured as body weight loss at 561 mg/kg (po). The format is functional.
Assay [5] relates to Mus musculus. In words: In vivo activity tested against C3H mice bearing panc-03 murine tumor measured as log Kill value was based on tumors that grew at 1010 mg/kg (po). Details: dose 1010 mg/kg. The format is functional, organism-based.
The subject of assay [6] is Mus musculus. In words: In vivo activity tested against C3H mice bearing panc-03 murine tumor measured as log Kill value was based on tumors that grew at 561 mg/kg (po); None. The class given is functional, organism-based. Details: dose 561 mg/kg.
The test system of assay [7] is Mus musculus. The experiment in a line: In vivo activity tested against C3H mice bearing panc-03 murine tumor measured as activity rating at 561 mg/kg (po). The class given is functional.
The test system of assay [8] is Mus musculus. In words: In vivo activity tested against C3H mice bearing panc-03 murine tumor measured as % treated/control calculated at 324 mg/kg (po). The class given is functional.
Assay [9] deals with Mus musculus. The experiment in a line: In vivo activity tested against C3H mice bearing mammary adenocarcinoma -16c/ADR tumor measured as body weight loss at 164 mg/kg (po). The format is functional.
The subject of assay [10] is Mus musculus. In words: In vivo activity tested against C3H mice bearing mammary adenocarcinoma -17/ADR tumor measured as body weight loss at 162 mg/kg (po). The format is functional.
For assay [11], the system named is Mus musculus. In words: In vivo activity tested against C3H mice bearing mammary adenocarcinoma -17/ADR tumor measured as body weight loss at 99 mg/kg (po). The format is functional.
The subject of assay [12] is Mus musculus. In words: In vivo activity tested against C3H mice bearing panc-03 murine tumor measured as body weight loss at 324 mg/kg (po). The format is functional.
In assay [13] the test system is Mus musculus. In words: In vivo activity tested against C3H mice bearing mammary adenocarcinoma -16c/ADR tumor measured as % treated/control calculated at 164 mg/kg (po). The class given is functional.
The test system of assay [14] is Mus musculus. The experiment in a line: In vivo activity tested against C3H mice bearing mammary adenocarcinoma -17/ADR tumor measured as % treated/control calculated at 162 mg/kg (po). The format is functional.
Assay [15] has as its system Mus musculus. The experiment in a line: In vivo activity tested against C3H mice bearing mammary adenocarcinoma -17/ADR tumor measured as % treated/control calculated at 99 mg/kg (po). The class given is functional.
Assay [16] deals with Mus musculus. In words: In vivo activity tested against C3H mice bearing mammary adenocarcinoma -17/ADR tumor measured as log Kill value was based on tumors that grew at 99 mg/kg (po). The class given is functional, organism-based. Details: dose 99 mg/kg.
Assay [17] relates to Mus musculus. The experiment in a line: In vivo activity tested against C3H mice bearing panc-03 murine tumor measured as log Kill value was based on tumors that grew at 180 mg/kg (po). Further details: dose 180 mg/kg. The format is functional, organism-based.
Assay [18] deals with Mus musculus. The experiment in a line: In vivo activity tested against C3H mice bearing panc-03 murine tumor measured as log Kill value was based on tumors that grew at 324 mg/kg (po). The format is functional, organism-based. Further details: dose 324 mg/kg.
The subject of assay [19] is Mus musculus. In words: In vivo activity tested against C3H mice bearing panc-03 murine tumor measured as % treated/control calculated at 180 mg/kg (po). The class given is functional.
The subject of assay [20] is Mus musculus. The experiment in a line: In vivo activity tested against C3H mice bearing mammary adenocarcinoma -16c/ADR tumor measured as log Kill value was based on tumors that grew at 164 mg/kg (po). The format is functional, organism-based. Further details: dose 164 mg/kg.
Assay [21] relates to Mus musculus. The experiment in a line: In vivo activity tested against C3H mice bearing mammary adenocarcinoma -17/ADR tumor measured as log Kill value was based on tumors that grew at 162 mg/kg (po). The format is functional, organism-based. Details: dose 162 mg/kg.
In assay [22] the test system is Mus musculus. The experiment in a line: In vivo activity tested against C3H mice bearing panc-03 murine tumor measured as body weight loss at 180 mg/kg (po). The class given is functional.
Assay [23] relates to Mus musculus. In words: In vivo activity tested against C3H mice bearing panc-03 murine tumor at a dose of 330mg/kg, measured as % treated/control. The format is functional.
Assay [24] concerns Mus musculus. In words: In vivo activity tested against C3H mice bearing panc-03 murine tumor at a dose of 330 mg/kg, measured as activity rating at 330 mg/kg iv dose. The format is functional.
Assay [25] deals with Mus musculus. The experiment in a line: In vivo activity tested against C3H mice bearing colon adenocarcinoma -38(colon-38) tumor measured as body weight loss at 195 mg/kg (po). The class given is functional.
The subject of assay [26] is Mus musculus. In words: In vivo activity tested against C3H mice bearing colon adenocarcinoma -38(colon-38) tumor measured as % treated/control calculated at 195 mg/kg (po). The class given is functional.
The subject of assay [27] is Mus musculus. In words: In vivo activity tested against C3H mice bearing mammary adenocarcinoma -16c/ADR tumor measured as body weight loss at 455 mg/kg (po). The format is functional.
Assay [28] concerns Mus musculus. In words: In vivo activity tested against C3H mice bearing mammary adenocarcinoma -16c/ADR tumor measured as body weight loss at 582 mg/kg (po). The format is functional.
For assay [29], the system named is Mus musculus. In words: In vivo activity tested against C3H mice bearing mammary adenocarcinoma -17/ADR tumor measured as body weight loss at 407.4 mg/kg (po). The class given is functional.
Assay [30] deals with Mus musculus. The experiment in a line: In vivo activity tested against C3H mice bearing mammary adenocarcinoma -17/ADR tumor measured as body weight loss at 679 mg/kg (po). The format is functional.
In assay [31] the test system is Mus musculus. The experiment in a line: In vivo activity tested against C3H mice bearing colon adenocarcinoma -38(colon-38) tumor measured as % treated/control calculated at 585 mg/kg (po). The class given is functional.
In assay [32] the test system is Mus musculus. The experiment in a line: In vivo activity tested against C3H mice bearing mammary adenocarcinoma -16c/ADR tumor measured as % treated/control calculated at 455 mg/kg (po). The class given is functional.
For assay [33], the system named is Mus musculus. In words: In vivo activity tested against C3H mice bearing mammary adenocarcinoma -16c/ADR tumor measured as % treated/control calculated at 582 mg/kg (po). The class given is functional.
For assay [34], the system named is Mus musculus. The experiment in a line: In vivo activity tested against C3H mice bearing mammary adenocarcinoma -17/ADR tumor measured as % treated/control calculated at 407.4 mg/kg (po). The class given is functional.
In assay [35] the test system is Mus musculus. The experiment in a line: In vivo activity tested against C3H mice bearing mammary adenocarcinoma -17/ADR tumor measured as % treated/control calculated at 679 mg/kg (po). The class given is functional.
Assay [36] relates to Mus musculus. In words: In vivo activity tested against C3H mice bearing mammary adenocarcinoma -17/ADR tumor measured as log Kill value was based on tumors that grew at 407.4 mg/kg (po). The format is functional, organism-based. Details: dose 407.4 mg/kg.
The subject of assay [37] is Mus musculus. The experiment in a line: In vivo activity tested against C3H mice bearing mammary adenocarcinoma -17/ADR tumor measured as log Kill value was based on tumors that grew at 679 mg/kg (po). The class given is functional, organism-based. Details: dose 679 mg/kg.
The subject of assay [38] is Mus musculus. In words: In vivo activity tested against C3H mice bearing mammary adenocarcinoma -16c/ADR tumor measured as log Kill value was based on tumors that grew at 455 mg/kg (po). The format is functional, organism-based. Further details: dose 455 mg/kg.
For assay [39], the system named is Mus musculus. The experiment in a line: In vivo activity tested against C3H mice bearing mammary adenocarcinoma -16c/ADR tumor measured as log Kill value was based on tumors that grew at 582 mg/kg (po). The format is functional, organism-based. Details: dose 582 mg/kg.
Assay [40] deals with Mus musculus. The experiment in a line: In vivo activity tested against C3H mice bearing colon adenocarcinoma -38(colon-38) tumor measured as log Kill value was based on tumors that grew at 195 mg/kg (po). Further details: dose 195 mg/kg. The format is functional, organism-based.
Assay [41] concerns Mus musculus. In words: In vivo activity tested against C3H mice bearing colon adenocarcinoma -38(colon-38) tumor measured as log Kill value was based on tumors that grew at 585 mg/kg (po). The class given is functional, organism-based. Further details: dose 585 mg/kg.
Assay [42] deals with Mus musculus. In words: In vivo activity tested against C3H mice bearing colon adenocarcinoma -38(colon-38) tumor measured as body weight loss at 585 mg/kg (po). The format is functional.

Activity calls are given as the source filed them. The calls are words filed in the database; no cut-off is given here. Some results are limits rather than exact numbers.

The values that follow come from ChEMBL document CHEMBL1134487, “Design, synthesis, and biological evaluation of analogues of the antitumor agent, 2-(4-[(7-chloro-2-quinoxalinyl)oxy]phenoxy)propionic acid (XK469)” (2001).

For the molecule `CC(Oc1ccc(Oc2cnc3c(Cl)cccc3n2)cc1)C(=O)O` (configuration not stated), the T/C (commonly the result in the treated group divided by that in the control group, in per cent) in the assay with Mus musculus [1] is reported as >100%; with Mus musculus [3], 59%. The Body weight loss in the assay with Mus musculus [2] is recorded as -2%; in the assay on Mus musculus [4], 2%. The same molecule registered a Log kill in the assay on Mus musculus [5] of 0.27. The Log kill result in the assay on Mus musculus [6] was “inactive”. The Activity rating in the assay with Mus musculus [7] was <0.7.
Take `COc1c(Cl)ccc2ncc(Oc3ccc(OC(C)C(=O)O)cc3)nc12` (configuration not stated): the T/C in the assay on Mus musculus [8] was 0%; with Mus musculus [13] it was 7.5%; in the assay with Mus musculus [14], 7%; in the assay with Mus musculus [15], 13%; in the assay with Mus musculus [19] it was 33%. The Body weight loss with Mus musculus [9] is listed as -6.2%; in the assay with Mus musculus [10], -16.4%; in the assay with Mus musculus [11], -1.5%; in the assay with Mus musculus [12], -15%; in the assay with Mus musculus [22], 5%. Moreover, the Log kill in the assay on Mus musculus [16] amounted to 1.2; in the assay with Mus musculus [17], 0.64; in the assay with Mus musculus [18], 3; in the assay with Mus musculus [20], 1.7; in the assay with Mus musculus [21] it was 1.5.
In the assay on Mus musculus [23], `CC(Nc1ccc(Oc2cnc3ccc(Cl)cc3n2)cc1)C(=O)O` (configuration not stated) showed a T/C of 100%. Besides, the Activity rating in the assay with Mus musculus [24] is recorded as >2.8.
Consider `COc1ccc2ncc(Oc3ccc(OC(C)C(=O)O)cc3)nc2c1` (configuration not stated), for which the Body weight loss is given as 0% in the assay with Mus musculus [25]; -1.2% with Mus musculus [27]; -13.6% in the assay on Mus musculus [28]; 0% in the assay on Mus musculus [29]; -4.6% with Mus musculus [30]; 0% in the assay on Mus musculus [42]. In addition, the T/C in the assay on Mus musculus [26] was 90%; with Mus musculus [31], 23%; in the assay on Mus musculus [32], 8%; with Mus musculus [33], 0%; in the assay on Mus musculus [34] it was 6.4%; in the assay on Mus musculus [35] it was 4.6%. Besides, the Log kill in the assay on Mus musculus [36] was 1.7; with Mus musculus [37], 3; in the assay with Mus musculus [38], 2.1; with Mus musculus [39], 2.7; in the assay with Mus musculus [40], 0.12; in the assay with Mus musculus [41], 1.73.
